Measured values: ChEMBL document CHEMBL3044756, “Distribution of trunk-injected ¹⁴C-imidacloprid in ash trees and effects on emerald ash borer (Coleoptera: Buprestidae) adults” (2009)

Tests used:
Type in all cases: functional
Agrilus planipennis [1] = experiment: Insecticidal activity against Agrilus planipennis isolated from 21 days after 25 uCi compound treated by trunk injected ash tree leaves assessed as mortality measured after 3 days of feeding
Agrilus planipennis [2] = experiment: Insecticidal activity against Agrilus planipennis isolated from 21 days after 25 uCi compound treated by trunk injected ash tree leaves assessed as mortality at 64 ug/g
Agrilus planipennis [3] = experiment: Insecticidal activity against Agrilus planipennis infected ash trees assessed as mortality at 25 uCi treated by trunk injection measured after 45 days
Agrilus planipennis [4] = experiment: Insecticidal activity against Agrilus planipennis infected ash trees assessed as mortality at 25 uCi treated by trunk injection measured after 21 days
Agrilus planipennis [5] = experiment: Insecticidal activity against Agrilus planipennis isolated from 45 days after 25 uCi compound treated by trunk injected ash tree leaves assessed as mortality measured after 3 days of feeding
Agrilus planipennis [6] = experiment: Insecticidal activity against Agrilus planipennis isolated from 21 days after 25 uCi compound treated by trunk injected ash tree leaves assessed as mortality at 0.55 to 60 ug/g

`O=[N+]([O-])/N=C1\NCCN1Cc1ccc(Cl)nc1` [IMIDACLOPRID] showed an Activity (Agrilus planipennis [1]) of 44%, an Activity (Agrilus planipennis [2]) of 70% and an Activity (Agrilus planipennis [3]) of 17%. For the same compound, the Activity (Agrilus planipennis [4]) was 11%, the Activity (Agrilus planipennis [5]) was 70% and the Activity (Agrilus planipennis [6]) was 11%.
